Several values for one entry are separate records, joined by “and”; a condition that tells them apart may be missing. Equal entries are not always repeated. Structures can show the parent of a compound that is named as a salt.
Key:
SIRT1 [1] = target: T1, SIRT1 (Homo sapiens, UniProt Q96EB6); assay: Mass spectrometry based SIRT1 activation assay (TAMRA/5TMR-labeled 20mer peptide); assay type: biochemical; conditions: for Emax: 25 min, percent maximum fold activation of SIRT1, read-out: % FOLD ACT.; for EC1.5 uM: concentration that results in 150% activation of SIRT1
T1 sequence (Q96EB6 1-747): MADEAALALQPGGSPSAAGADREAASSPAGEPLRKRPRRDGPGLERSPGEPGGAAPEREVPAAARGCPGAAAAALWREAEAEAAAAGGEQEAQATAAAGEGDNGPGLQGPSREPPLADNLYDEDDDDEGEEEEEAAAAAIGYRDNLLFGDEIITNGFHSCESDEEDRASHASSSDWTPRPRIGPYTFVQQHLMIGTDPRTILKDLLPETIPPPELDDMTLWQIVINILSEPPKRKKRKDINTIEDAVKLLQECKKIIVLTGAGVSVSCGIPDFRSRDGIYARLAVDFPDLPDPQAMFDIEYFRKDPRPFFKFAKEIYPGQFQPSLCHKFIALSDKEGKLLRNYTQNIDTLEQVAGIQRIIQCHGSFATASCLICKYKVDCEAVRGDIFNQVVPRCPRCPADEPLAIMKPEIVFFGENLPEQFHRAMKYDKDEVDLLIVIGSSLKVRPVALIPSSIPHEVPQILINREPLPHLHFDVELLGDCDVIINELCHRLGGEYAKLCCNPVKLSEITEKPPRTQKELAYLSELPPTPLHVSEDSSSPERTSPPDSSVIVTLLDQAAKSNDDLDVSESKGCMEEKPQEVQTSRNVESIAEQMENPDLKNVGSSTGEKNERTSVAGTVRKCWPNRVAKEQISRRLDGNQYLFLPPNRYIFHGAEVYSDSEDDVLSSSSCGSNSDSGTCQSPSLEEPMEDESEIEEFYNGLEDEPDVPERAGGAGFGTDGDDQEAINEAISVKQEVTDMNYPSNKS
Source text: A mass spectrometry based assay was used to identify modulators of SIRTI activity. The mass spectrometry based assay utilizes a peptide having 20 amino acid residues as follows: Ac-EE-K(biotin)-GQSTSSHSK(Ac)NleSTEG-K(5TMR)-EE-NH2 (SEQ ID NO: 1) wherein K(Ac) is an acetylated lysine residue and Nle is a norleucine. The peptide is labeled with the fluorophore 5TMR (excitation 540 nrnIemission 580 nm) at the C-terminus. The sequence of the peptide substrate is based on p53 with several modifications. In addition, the methionine residue naturally present in the sequence was replaced with the norleucine because the methionine may be susceptible to oxidation during synthesis and purification.
The mass spectrometry assay is conducted as follows: 0.5 J-1M peptide substrate and 120 μM βNAD^+ is incubated with 10 nM SIRT1 for 25 minutes at 25° C. in a reaction buffer (50 mM Tris-acetate pH 8, 137 mM NaCl, 2.7 mM KCl, 1 mM MgClz, 5 mM DTT, 0.05% BSA). Test compounds may be added to the reaction as described above. The SirTI gene is cloned into a T7-promoter containing vector and transformed into BL21 (DE3). After the 25 minute incubation with SIRT1, 10 μL of 10% formic acid is added to stop the reaction. Reactions are sealed and frozen for later mass spec analysis. Determination of the mass of the substrate peptide allows for precise determination of the degree of acetylation (i.e. starting material) as compared to deacetylated peptide (product).
A control for inhibition of sirtuin activity is conducted by adding 1 μL of 500 mM nicotinamide as a negative control at the start of the reaction (e.g., permits determination of maximum sirtuin inhibition). A control for activation of sirtuin activity is conducted using 10 nM of sirtuin protein, with 1 μL of DMSO in place of compound, to determine the amount of deacetylation of the substrate at a given timepoint within the linear range of the assay. This timepoint is the same as that used for test compounds and, within the linear range, the endpoint represents a change in velocity.
For the above assay, SIRTI protein was expressed and purified as follows. The SirT1 gene was cloned into a T7-promoter containing vector and transformed into BL21(DE3). The protein was expressed by induction with 1 mM IPTG as an N-terminal His-tag fusion protein at 18° C. overnight and harvested at 30,000×g. Cells were lysed with lysozyme in lysis buffer (50 mM Tris-HCl, 2 mM Tris[2-carboxyethyl]phosphine (TCEP), 10 μM ZnCl2, 200 mM NaCl) and further treated with sonication for 10 min for complete lysis. The protein was purified over a Ni-NTA column (Amersham) and fractions containing pure protein were pooled, concentrated and run over a sizing column (Sephadex S200 26/60 global). The peak containing soluble protein was collected and run on an Ion-exchange column (MonoQ). Gradient elution (200 mM-500 mM NaCl) yielded pure 20 protein. This protein was concentrated and dialyzed against dialysis buffer (20 mM TrisHCl, 2 mM TCEP) overnight. The protein was aliquoted and frozen at −80° C. until further use.
Sirtuin modulating compounds that activated SIRT1 were identified using the assay described above and are shown below in Table 4. The EC1.5 values represent the concentration of test compounds that result in 150% activation of SIRT1. The EC1.5 values for the activating compounds are represented by A (EC1.5≦1 μM), B (EC1.5>1 μM). The percent maximum fold activation is represented by A (Fold activation ≧200%) or B (Fold Activation <200%).

SIRT1 [2] = target: T1, SIRT1; assay: Mass spectroscopic kinetic assay of SIRT1-catalyzed deacetylation of 20mer peptides; assay type: biochemical; conditions: for Effect on the deacetylation of des(biotin,TAMRA)-peptide: substrate des(biotin,TAMRA)-peptide; for RVmax for activation of the deacetylation of desTAMRA-peptide / EC50: substrate desTAMRA-peptide, fit to eq (1); for EC50: read-out: EC50 for activation of the deacetylation of desTAMRA-peptide; for Ki,app for inhibition of the deacetylation of p53-20 mer / Ki: substrate p53-20 mer, RV=1/(1+([X]o/Ki,app)); for Ki: read-out: Ki,app for inhibition of the deacetylation of p53-20 mer
Experimental: Bovine glutamate dehydrogenase (GDH), α-ketoglutarate, NADH and NAD^+ were from Sigma Chemical Company. […] The nicotinamidase PNC1 was prepared as described by Denu and colleagues (Smith et al. (2009) Anal Biochem 394, 101-109). Our collection of approximately 5,000 SIRT1 activators was screened using the BioTrove mass spectrometry system, as previously described (Milne et al. (2007) Nature 450, 712-716). […] Compounds were present at 10 μM, and the assays were conducted in a pH 7.4 buffer containing 150 mM Tris, 5 mM DTT, 1% DMSO, and 0.025% BSA. To determine the interaction of STACs with SIRT1 two kinetic methods were employed. […] (2007) Nature 450, 712-716). The other, used with peptides of general structure […], used a continuous, enzyme-coupled method reported previously (Smith et al. (2009) Anal Biochem 394, 101-109), in which the SRT1 product nicotinamide is first converted into nicotinic acid and ammonia by the action of PNC1, and the ammonia then used by GDH to convert α-ketoglutarate into glutamate. This reaction occurs with oxidation of NADH to NAD^+ which is accompanied by a change in absorbance at 340 nm (Δε340=-6,200 M^-1 cm^-1). Activator titrations were plotted as relative velocity (i.e., the ratio of vx, velocity in the presence of activator X, to vo, velocity in the absence of activator) vs. [X]o, initial concentration of activator, and fit by nonlinear least-squares to the mechanism-independent expression for enzyme activation of […] the maximum relative velocity (i.e., vx/vo at infinite [X]o) and EC50 is the activator concentration at which vx/vo=(RVmax-1)/2. EC50 is a function of the kinetic mechanisms of both catalysis and activation, and the concentrations of substrates.

| Structure (SMILES) | Emax (SIRT1 [1]) [%] | EC1.5 uM (SIRT1 [1]) | further results |
| --- | --- | --- | --- |
| O=C(Nc1ccccc1-c1cn2c(CN3CCNCC3)csc2n1)c1cccc(-c2ccccc2)c1 [Compound 1, N-(2-(3-(piperazin-1-ylmethyl)imidazo[2,1-b]thiazol-6-yl)phenyl)biphenyl-3-carboxamide] | ≥ 200 | A (EC1.5≦1 μM) | – |
| O=C(Nc1ccccc1-c1cn2c(CN3CCNCC3)csc2n1)c1nc2ncccc2o1 [Compound 3, N-(2-(3-(piperazin-1-ylmethyl)imidazo[2,1-b]thiazol-6-yl)phenyl)oxazolo[4,5-b]pyridine-2-carboxamide] | < 200 | B (EC1.5>1 μM) | – |
| O=C(Nc1ccccc1-c1nc2cc(CN3CC[C@@H](F)C3)cnc2s1)c1cccc(OC2CN3CCC2CC3)c1 (stereo partly drawn) [Compound 5, N-(2-(6-(((R)-3-fluoropyrrolidin-1-yl)methyl)thiazolo[5,4-b]pyridin-2-yl)phenyl)-3-(quinuclidin-3-yloxy)benzamide] | ≥ 200 | B (EC1.5>1 μM) | – |
| CC(C)CNCC1CC1C(=O)Nc1ccccc1-c1nc2cc(CN3CCNCC3)cnc2s1 (stereo not drawn) [Compound 6] | – | B (EC1.5>1 μM) | – |
| COc1ccc(C(=O)Nc2ccccc2-c2nc3cc(COC4CCNCC4)cnc3s2)cc1OC [Compound 8, 3,4-dimethoxy-N-(2-(6-((piperidin-4-yloxy)methyl)thiazolo[5,4-b]pyridin-2-yl)phenyl)benzamide] | ≥ 200 | A (EC1.5≦1 μM) | – |
| CN(C)CCNCc1cccc(C(=O)Nc2ccccc2-c2nc3cc(COC4CCNCC4)cnc3s2)c1 [Compound 9] | < 200 | B (EC1.5>1 μM) | – |
| CC(C)Cc1nc(NC2CCNCC2)cc(C(=O)Nc2ccccc2-c2nc3cc(COC4CCNCC4)cnc3s2)n1 [Compound 11, 2-isobutyl-6-(piperidin-4-ylamino)-N-(2-(6-((piperidin-4-yloxy)methyl)thiazolo[5,4-b]pyridin-2-yl)phenyl)pyrimidine-4-carboxamide] | ≥ 200 | A (EC1.5≦1 μM) | Effect on the deacetylation of des(biotin,TAMRA)-peptide (SIRT1 [2]): none activate; RVmax for activation of the deacetylation of desTAMRA-peptide (SIRT1 [2]): ~2.3; RVmax for activation of the deacetylation of desTAMRA-peptide (SIRT1 [2]; listed as 23): 2.8±0.2; EC50 (SIRT1 [2]): ~2000 nM and 2200 nM; Ki,app for inhibition of the deacetylation of p53-20 mer (SIRT1 [2]): inhibit; Ki (SIRT1 [2]): 10000 ± 1000 nM |
| CCCCc1nc(NCCNC)cc(C(=O)Nc2ccccc2-c2nc3cc(COC4CCNCC4)cnc3s2)n1 [Compound 12, 2-butyl-6-(2-(methylamino)ethylamino)-N-(2-(6-((piperidin-4-yloxy)methyl)thiazolo[5,4-b]pyridin-2-yl)phenyl)pyrimidine-4-carboxamide] | ≥ 200 | A (EC1.5≦1 μM) | Effect on the deacetylation of des(biotin,TAMRA)-peptide (SIRT1 [2]): none activate; RVmax for activation of the deacetylation of desTAMRA-peptide (SIRT1 [2]): ~2.3; RVmax for activation of the deacetylation of desTAMRA-peptide (SIRT1 [2]; listed as 24): 2.1 ± 0.1; EC50 (SIRT1 [2]): ~2000 nM and 1500 nM; Ki,app for inhibition of the deacetylation of p53-20 mer (SIRT1 [2]): inhibit; Ki (SIRT1 [2]): 9000 ± 3000 nM |
| CCCNc1cc(-c2nc3c(NC(=O)c4cccc(C5CCNC5)c4)cccc3[nH]2)ccn1 (stereo not drawn) [Compound 15, N-(2-(2-(propylamino)pyridin-4-yl)-1H-benzo[d]imidazol-4-yl)-3-(pyrrolidin-3-yl)benzamide hydrochloride] | ≥ 200 | A (EC1.5≦1 μM) | – |
| O=C(Nc1cccc(COC2CCNCC2)c1)c1cccc2[nH]c(-c3ccnc(N4CCOCC4)c3)nc12 [Compound 17, 2-(2-morpholinopyridin-4-yl)-N-(3-((piperidin-4-yloxy)methyl)phenyl)-1H-benzo[d]imidazole-4-carboxamide] | ≥ 200 | A (EC1.5≦1 μM) | – |
| CN(C)CCCNc1ccc(-c2nc3cc(NC(=O)c4cccc(CN5CCNCC5)c4)ccc3[nH]2)cn1 [Compound 18] | < 200 | B (EC1.5>1 μM) | – |
| COc1ccc2nc(NC(=O)c3cccc4[nH]c(-c5ccc(N6CCNCC6)nc5)nc34)sc2c1 [Compound 19, N-(6-methoxybenzo[d]thiazol-2-yl)-2-(6-(piperazin-1-yl)pyridin-3-yl)-1H-benzo[d]imidazole-4-carboxamide] | ≥ 200 | A (EC1.5≦1 μM) | – |
| N#Cc1ccc(NC(=O)c2cccc3[nH]c(-c4ccc(N5CCNCC5)nc4)nc23)cc1C(F)(F)F [Compound 20, N-(4-cyano-3-(trifluoromethyl)phenyl)-2-(6-(piperazin-1-yl)pyridin-3-yl)-1H-benzo[d]imidazole-4-carboxamide] | ≥ 200 | A (EC1.5≦1 μM) | – |
| CCCCN(CCCC)c1cc(-c2nc3c(C(=O)Nc4cccc(COC5CCNCC5)c4)cccc3[nH]2)ccn1 [Compound 21] | ≥ 200 | A (EC1.5≦1 μM) | – |
